From US5480969A, “Antagonists of LHRH” (The Administrators of the Tulane Educational Fund, priority 1992, dated 1996)
Values after ≈ are worked out from the molar mass of the structure shown. Values joined by “and” are separate entries in the source; they are usually repeats but may differ in a detail not shown here. Identical values can stand only once. Like-named read-outs stand apart in the source and are kept apart here. Each block holds one compound with its values, some of them ahead of it. Starred links: 1 amine or outer side, 2 acyl side, 3 side chain; linkers in the order of their positions; H or OH if unused. Non-standard residues stand in square brackets, D forms with d. Residues, ends and D or L forms follow the SMILES beside them. *: point of attachment. dAla(cis-4-NHCOPyz-cHex) = N[C@H](C[C@H]1CC[C@@H](NC(=O)c2cnccn2)CC1)C(=O)O; X2 = O=C(N[C@H]1CC[C@@H](C[C@H](N[*:1])C(=O)[*:2])CC1)c1cnccn1; d(hArg(Et2)) = CCN=C(NCC)NCCCC[C@@H](N)C(=O)O; X1 = O=C([C@@H](Cc1cnc2ccccc2c1)N[*:1])[*:2]; Ala(2-pyrazinyl) = N[C@@H](Cc1cnccn1)C(=O)O; hArg(Et2) = CCN=C(NCC)NCCCC[C@H](N)C(=O)O; dPhe(4-Cl) = N[C@H](Cc1ccc(Cl)cc1)C(=O)O; X3 = O=C([C@@H](Cc1cnccn1)N[*:1])[*:2]; d2Nal = N[C@H](Cc1ccc2ccccc2c1)C(=O)O; Lys(iPr) = CC(C)NCCCC[C@H](N)C(=O)O; d3Pal = N[C@H](Cc1cccnc1)C(=O)O; Cit = NC(=O)NCCC[C@H](N)C(=O)O; Picolinoyl = O=C(c1ccccn1)*; Abu = CC[C@H](N)C(=O)O

Key:
rat mast cells [1] = assay: In vitro histamine release in rat mast cells; type: cell-based
Procedure: (§1) AOA in rats was determined as reported [Humphries et al.]. The wheal area/10 μg of analog was calculated as described [Ljungqvist et al. 1987]. The histamine release was assayed in rat mast cells as reported [Hook et al., Karten et al. 1987]. […] The biological data are in Table III.
(§2) The AOA was determined in rats as reported [Humphries et al.]. […] The data from the determinations of AOA and ED50 are in Table IV.
(§3) The AOA was determined in rats, as reported (13).

[2] = Wheal area per 10 μg of analog; type: in vivo
Procedure: as §1

rat mast cells [3] = settings: cited from earlier work; for Histamine release ED50: Table V
rats [4] = assay: Antiovulatory activity (AOA) in rats; type: in vivo, rat; settings: Table IV / Example 2
Procedure: as §1, §2, §3
The very large number of bioassays which are required for a very large number of samples necessitate a minimal number of animals for the initial bioassays. In these initial bioassays, relatively small differences in potencies, expressed as percent AOA, may be "semi-quantitative," but even such small initial differences may reveal valid trends of potency for structural interpretation and new designs.
Bioassays are repeated as many times as required for quantitative data. […] The initial bioassay of Antide showing 63% at 0.125 μg and 89% at 0.25 μg was on the first sample of […]. The following three bioassays were on a resynthesized sample. However, both samples fulfilled all criteria for purity.

rats [5] = settings: cited from earlier work; for AOA %/μg 0.25: 0.25 μg; for dose giving AOA of 100% (AOA100): background, literature antagonists
[6] = Table III parent analogs from literature; cited from earlier work
gonadotropin secretion = settings: overectomized monkeys; single or multiple doses; cited from earlier work
testosterone secretion = settings: male monkeys; single dose; cited from earlier work

Compound: CC(=O)N[C@H](Cc1ccc2ccccc2c1)C(=O)N[C@H](Cc1ccc(Cl)cc1)C(=O)N[C@H](Cc1cccnc1)C(=O)N[C@@H](CO)C(=O)N[C@@H](CCCCNC(=O)c1ccccn1)C(=O)N[C@H](CCCCNC(=O)[C@H](N)CO)C(=O)N[C@@H](CC(C)C)C(=O)N[C@@H](CCCCNC(C)C)C(=O)N1CCC[C@H]1C(=O)N[C@H](C)C(N)=O [Analog 7 (Table III), [N-Ac-D-Nal^1,D-pClPhe^2,D-3-Pal^3,PicLys^5,D-(DSer)Lys.sup .6,ILys^8,D-Ala^10]-LHRH] (Ac-[d2Nal][dPhe(4-Cl)][d3Pal]SK(Picolinoyl)[dK](dS)L[Lys(iPr)]P[dA]-NH2)
Wheal area ([2]; Table III / Example 1, listed as 7): 103.9 ± 5.2 mm^2 /10 μg and 103.9 mm^2 /10 μg

Compound: CCN=C(NCC)NCCCC[C@H](NC(=O)[C@H](CC(C)C)NC(=O)[C@@H](CCCCNC(=NCC)NCC)NC(=O)[C@H](Cc1ccc(O)cc1)NC(=O)[C@H](CO)NC(=O)[C@@H](Cc1cccnc1)NC(=O)[C@@H](Cc1ccc(Cl)cc1)NC(=O)[C@@H](Cc1ccc2ccccc2c1)NC(C)=O)C(=O)N1CCC[C@H]1C(=O)N[C@H](C)C(N)=O [RS-26306, [N-Ac-D-2-Nal^1, D-pClPhe^2, D-3-Pal^3, D-hArg(Et2)^6, hArg(Et)2^8, D-Ala^10] LHRH] (Ac-[d2Nal][dPhe(4-Cl)][d3Pal]SY[d(hArg(Et2))]L[hArg(Et2)]P[dA]-NH2)
Histamine release ED50 (rat mast cells [3]): 13 µg/mL

Compound: [D-Phe^2, Pro^3, DTrp^6 ] LHRH
dose giving AOA of 100% (AOA100) (rats [5]): 750 μg/rat

Compound: [N-Ac-D-2-Nal^1 ; D-pClPhe^2, D-Trp^3, D-Arg^6, D-Ala^10 ] LHRH
dose giving AOA of 100% (AOA100) (rats [5]): ca. 0.5 μg/rat

Compound: [N-Ac-D-2-Nal^1, D-pClPhe^2, D-3-Pal^3, Arg^5, D-Glu(AA)^6, D-Ala^10 ] LHRH [Nal-Glu]
column 1.5 (AOA, head not given) (rats [5]; Table V, column 1.5): 100

Compound: [N-Ac-D-2-Nal^1, D-pClPhe^2, D-3-Pal^3, D-Arg^6, Trp^7, D-Ala^10 ] LHRH
dose giving AOA of 100% (AOA100) (rats [5]): ca. 0.5 μg/rat

Compound: [N-Ac-D-2-Nal^1, D-pClPhe^2, D-3-Pal^3, NicLys^5, D-NicLys^6, Ilys^8, D-Ala^10 ] LHRH [Antide]
column 1.0 (AOA, head not given) (rats [5]; Table V, column 1.0): 100
dose giving AOA of 100% (AOA100) (rats [5]): 1 μg/rat
AOA %/μg 0.25 (rats [5]; rats, Table III parent analogs from literature): inactive
AOA %/μg 0.5 (rats [5]; rats, 0.5 μg, Table III parent analogs from literature): 36%
ED50 for hist. release (rat mast cells [3]; Table III parent analogs from literature): 300 µg/mL
Histamine release ED50 (rat mast cells [3]): > 300 µg/mL
ED50 for histamine release (rat mast cells [3]; background): 300 µg/mL
histamine release (in words) (rat mast cells [3]; background): negligible
Wheal area [6]: 132.7 mm^2 /10 μg
inhibition of gonadotropin secretion (gonadotropin secretion): Prolonged duration of inhibition
suppression of testosterone secretion (testosterone secretion): long-term suppression

Compound: [N-Ac-D-2-Nal^1, DpClPhe^2, D-Trp^3, D-Cit^6, D-Ala^10 ] LHRH
dose giving AOA of 100% (AOA100) (rats [5]): 3 μg/rat

Continued, in another order:

ED50 for hist. release (rat mast cells [1]): 18 µg/mL
Compound: CC(=O)N[C@H](Cc1ccc2ccccc2c1)C(=O)N[C@H](Cc1ccc(Cl)cc1)C(=O)N[C@H](Cc1cccnc1)C(=O)N[C@@H](CO)C(=O)N[C@@H](CCCCNC(=O)c1ccccn1)C(=O)N[C@H](CCCCNC(=O)[C@H](N)CO)C(=O)N[C@@H](CC(C)C)C(=O)N[C@@H](CCCCNC(C)C)C(=O)N1CCC[C@H]1C(=O)N[C@H](C)C(N)=O (Ac-[d2Nal][dPhe(4-Cl)][d3Pal]SK(Picolinoyl)[dK](dS)L[Lys(iPr)]P[dA]-NH2)

ED50 for hist. release (rat mast cells [1]): 88 ± 6.4 µg/mL
Compound: CC(=O)N[C@H](Cc1ccc2ccccc2c1)C(=O)N[C@H](Cc1ccc(Cl)cc1)C(=O)N[C@H](Cc1cccnc1)C(=O)N[C@@H](CO)C(=O)N[C@@H](C[C@H]1CC[C@@H](NC(=O)c2cnccn2)CC1)C(=O)N[C@H](Cc1cnccn1)C(=O)N[C@@H](CC(C)C)C(=O)N[C@@H](CCCCNC(C)C)C(=O)N1CCC[C@H]1C(=O)N[C@H](C)C(N)=O (Ac-[d2Nal][dPhe(4-Cl)][d3Pal]S[X2][X3]L[Lys(iPr)]P[dA]-NH2)

ED50 histamine release (rat mast cells [1]): 94 µg/mL (≈ 62.6 µM)
Compound: CC(=O)N[C@H](Cc1cnc2ccccc2c1)C(=O)N[C@H](Cc1ccc(Cl)cc1)C(=O)N[C@H](Cc1cccnc1)C(=O)N[C@@H](CO)C(=O)N[C@@H](CCCNC(N)=O)C(=O)N[C@H](CCCCNC(=O)c1ccccn1)C(=O)N[C@@H](CC(C)C)C(=O)N[C@@H](CCCNC(=N)N)C(=O)N1CCC[C@H]1C(=O)N[C@H](C)C(N)=O [Analog 6 (Table VI), [Cit^5]-Argtide] (Ac-[X1][dPhe(4-Cl)][d3Pal]S[Cit][dK](Picolinoyl)LRP[dA]-NH2)

ED50 for hist. release (rat mast cells [1]): 171 ± 17 µg/mL
Compound: CC(=O)N[C@H](Cc1cnc2ccccc2c1)C(=O)N[C@H](Cc1ccc(Cl)cc1)C(=O)N[C@H](Cc1cccnc1)C(=O)N[C@@H](CO)C(=O)N[C@@H](C[C@H]1CC[C@@H](NC(=O)c2cnccn2)CC1)C(=O)N[C@H](CCCCNC(=O)c1ccccn1)C(=O)N[C@@H](CC(C)C)C(=O)N[C@@H](CCCCNC(C)C)C(=O)N1CCC[C@H]1C(=O)N[C@H](C)C(N)=O [Analog 11 (Table III), [N-Ac-D-3-Qal^1, D-pClPhe^2, D-3-Pal^3, c-PzACAla^5, D-PicLys^6, ILys^8, D-Ala^10] LHRH] (Ac-[X1][dPhe(4-Cl)][d3Pal]S[X2][dK](Picolinoyl)L[Lys(iPr)]P[dA]-NH2)

ED50 for hist. release (rat mast cells [1]; concentration releasing 50% of total releasable histamine, Table III / Example 1): 28 ± 4.7 µg/mL
Wheal area ([2]; Table III / Example 1): 101.6 ± 2.2 mm^2 /10 μg
Compound: CC(=O)N[C@H](Cc1ccc2ccccc2c1)C(=O)N[C@H](Cc1ccc(Cl)cc1)C(=O)N[C@H](Cc1cccnc1)C(=O)N[C@@H](CO)C(=O)N[C@@H](Cc1cnccn1)C(=O)N[C@H](C[C@H]1CC[C@@H](NC(=O)c2cnccn2)CC1)C(=O)N[C@@H](CC(C)C)C(=O)N[C@@H](CCCCNC(C)C)C(=O)N1CCC[C@H]1C(=O)N[C@H](C)C(N)=O [compound 18] (Ac-[d2Nal][dPhe(4-Cl)][d3Pal]S[Ala(2-pyrazinyl)][dAla(cis-4-NHCOPyz-cHex)]L[Lys(iPr)]P[dA]-NH2)

Wheal area ([2]; Table III / Example 1): 103.9 ± 3.7 mm^2 /10 μg
Compound: CC[C@H](NC(=O)[C@@H](CCCCNC(=O)c1ccccn1)NC(=O)[C@H](CCCCNC(=O)c1ccccn1)NC(=O)[C@H](CO)NC(=O)[C@@H](Cc1cccnc1)NC(=O)[C@@H](Cc1ccc(Cl)cc1)NC(=O)[C@@H](Cc1cnc2ccccc2c1)NC(C)=O)C(=O)N[C@@H](CCCCNC(C)C)C(=O)N1CCC[C@H]1C(=O)N[C@H](C)C(N)=O [compound 20] (Ac-[X1][dPhe(4-Cl)][d3Pal]SK(Picolinoyl)[dK](Picolinoyl)[Abu][Lys(iPr)]P[dA]-NH2)

Wheal area ([2]; Table III / Example 1): 99.5 ± 4.5 mm^2 /10 μg
Compound: CC(=O)N[C@H](Cc1ccc2ccccc2c1)C(=O)N[C@H](Cc1ccc(Cl)cc1)C(=O)N[C@H](Cc1cccnc1)C(=O)N[C@@H](CO)C(=O)N[C@@H](CCCCNC(=O)c1ccccn1)C(=O)NC1CCN(C(CC(C)C)C(=O)N[C@@H](CCCCNC(C)C)C(=O)N2CCC[C@H]2C(=O)N[C@H](C)C(N)=O)C1=O (stereo partly shown) [compound 21]

Wheal area ([2]; Table III / Example 1): 89.5 ± 5.5 mm^2 /10 μg
Compound: CC(=O)N[C@H](Cc1cnc2ccccc2c1)C(=O)N[C@H](Cc1ccc(Cl)cc1)C(=O)N[C@H](Cc1cccnc1)C(=O)N[C@@H](CO)C(=O)N[C@@H](CCCCNC(=O)c1ccccn1)C(=O)NC1CCN(C(CC(C)C)C(=O)N[C@@H](CCCCNC(C)C)C(=O)N2CCC[C@H]2C(=O)N[C@H](C)C(N)=O)C1=O (stereo partly shown) [compound 22]

ED50 histamine release (rat mast cells [1]): 30.8 ± 0.59 µg/mL
Compound: N-Ac-D-3-Qal, D-pClPhe, D-3-Pal, Ser, c-PzACAla, D-PicLys, Leu, Arg, Pro, D-AlaNH2 [Argtide]
% AOA/μg dosage 0.125 (rats [4]; 0.125 μg): 63%
% AOA/μg dosage 0.25 (rats [4]; 0.25 μg): 89%
column 0.125 (AOA, head not given) (rats [5]; Table V comparison of leading antagonists, column 0.125): 63
AOA %/μg 0.25 (rats [5]; rats, Table VI / Example 3 text, from Janecka et al.): 88%
Histamine release ED50 (rat mast cells [3]): 31 µg/mL
ED50 histamine release (rat mast cells [3]; Table VI / Example 3 text, from Janecka et al.): 31 µg/mL
